# Measurements from PMC4490784, “Compensatory induction of MYC expression by sustained CDK9 inhibition via a BRD4-dependent mechanism” (eLife, 2015).
# Experiments:
# Test in all cases: KINOMEscan binding assay
# MAP4K3 = target: T1, MAP4K3 (Homo sapiens, UniProt Q8IVH8)
# T1 construct: purchased DiscoveRx KINOMEscan
# Method in brief: (§1)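 Each kinase in a >400-member collection was probed for i-CDK9 binding via an active site-directed competition platform; test levels 1 and 10 µM.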
# MAP3K1 = target: T2, MAP3K1 (Homo sapiens, UniProt Q13233); conditions: read-out: % Retention on Solid Support
# T2 construct: purchased DiscoveRx KINOMEscan
# Method in brief: as §1
# MAP4K5 = target: T3, MAP4K5 (Homo sapiens, UniProt Q9Y4K4); conditions: read-out: % Retention on Solid Support
# T3 construct: purchased DiscoveRx KINOMEscan
# Method in brief: as §1
# MYLK4 = target: T4, MYLK4 (Homo sapiens, UniProt Q86YV6); conditions: read-out: % Retention on Solid Support
# T4 construct: purchased DiscoveRx KINOMEscan
# Method in brief: as §1
# ERK3 = target: T5, ERK3 (Homo sapiens, UniProt Q16659); conditions: read-out: % Retention on Solid Support
# T5 construct: purchased DiscoveRx KINOMEscan
# Method in brief: as §1
# EPHA4 = target: T6, EPHA4 (Homo sapiens, UniProt P54764); conditions: read-out: % Retention on Solid Support
# T6 construct: purchased DiscoveRx KINOMEscan
# Method in brief: as §1
# PHKG1 = target: T7, PHKG1 (Homo sapiens, UniProt Q16816); conditions: read-out: % Retention on Solid Support
# T7 construct: purchased DiscoveRx KINOMEscan
# Method in brief: as §1
# [1] = target: T8, RSK3(Kin.Dom.2-C-terminal) (Homo sapiens, UniProt Q15349); conditions: read-out: % Retention on Solid Support
# T8 construct: RSK3(Kin.Dom.2-C-terminal); purchased DiscoveRx KINOMEscan
# T8 sequence (Q15349 389-733 limits assumed): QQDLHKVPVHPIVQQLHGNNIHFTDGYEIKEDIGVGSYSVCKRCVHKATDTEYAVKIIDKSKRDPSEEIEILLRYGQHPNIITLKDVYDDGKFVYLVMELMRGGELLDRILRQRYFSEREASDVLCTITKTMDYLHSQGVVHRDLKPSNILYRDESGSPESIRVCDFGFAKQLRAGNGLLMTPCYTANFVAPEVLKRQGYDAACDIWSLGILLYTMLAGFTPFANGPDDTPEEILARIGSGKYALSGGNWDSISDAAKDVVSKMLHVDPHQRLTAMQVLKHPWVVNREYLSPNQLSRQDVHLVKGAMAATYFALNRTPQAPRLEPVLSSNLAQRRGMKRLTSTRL
# Method in brief: as §1
# MKNK2 = target: T9, MKNK2 (Homo sapiens, UniProt Q9HBH9); conditions: read-out: % Retention on Solid Support
# T9 construct: purchased DiscoveRx KINOMEscan
# T9 sequence (Q9HBH9 whole entry): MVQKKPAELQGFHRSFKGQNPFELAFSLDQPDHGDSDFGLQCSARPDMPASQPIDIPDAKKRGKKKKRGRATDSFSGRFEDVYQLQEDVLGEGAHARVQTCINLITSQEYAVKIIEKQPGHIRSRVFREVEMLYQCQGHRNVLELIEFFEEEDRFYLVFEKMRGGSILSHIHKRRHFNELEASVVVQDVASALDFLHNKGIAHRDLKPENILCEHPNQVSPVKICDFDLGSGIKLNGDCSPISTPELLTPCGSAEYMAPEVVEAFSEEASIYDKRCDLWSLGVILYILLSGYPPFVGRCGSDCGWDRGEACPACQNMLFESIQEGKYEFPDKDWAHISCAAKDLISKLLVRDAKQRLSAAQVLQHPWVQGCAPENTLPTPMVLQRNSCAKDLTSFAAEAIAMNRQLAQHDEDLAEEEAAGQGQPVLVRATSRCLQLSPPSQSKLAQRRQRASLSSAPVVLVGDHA
# Method in brief: as §1
# RET = target: T10, RET (Homo sapiens, UniProt P07949); conditions: read-out: % Retention on Solid Support
# T10 construct: purchased DiscoveRx KINOMEscan
# Method in brief: as §1
# [2] = target: T11, RSK1(Kin.Dom.2-C-terminal) (Homo sapiens, UniProt Q15418); conditions: read-out: % Retention on Solid Support
# T11 construct: RSK1(Kin.Dom.2-C-terminal); purchased DiscoveRx KINOMEscan
# Method in brief: as §1
# [3] = target: T12, TYK2(JH2domain-pseudokinase) (Homo sapiens, UniProt P29597)
# T12 construct: TYK2(JH2domain-pseudokinase); purchased DiscoveRx KINOMEscan
# T12 sequence (P29597 556-888 limits assumed): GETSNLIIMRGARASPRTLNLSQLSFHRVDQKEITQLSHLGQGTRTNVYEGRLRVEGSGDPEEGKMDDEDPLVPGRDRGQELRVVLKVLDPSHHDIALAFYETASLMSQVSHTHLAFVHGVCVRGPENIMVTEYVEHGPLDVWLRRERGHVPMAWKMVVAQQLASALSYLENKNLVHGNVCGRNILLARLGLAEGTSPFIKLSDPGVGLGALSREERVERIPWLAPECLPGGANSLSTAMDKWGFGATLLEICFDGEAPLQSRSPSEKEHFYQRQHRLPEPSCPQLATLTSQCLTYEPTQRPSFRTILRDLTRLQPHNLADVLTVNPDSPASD
# Method in brief: as §1
# MRCKA = target: T13, MRCKA (Homo sapiens, UniProt Q5VT25); conditions: read-out: % Retention on Solid Support
# T13 construct: purchased DiscoveRx KINOMEscan
# T13 sequence (Q5VT25 whole entry): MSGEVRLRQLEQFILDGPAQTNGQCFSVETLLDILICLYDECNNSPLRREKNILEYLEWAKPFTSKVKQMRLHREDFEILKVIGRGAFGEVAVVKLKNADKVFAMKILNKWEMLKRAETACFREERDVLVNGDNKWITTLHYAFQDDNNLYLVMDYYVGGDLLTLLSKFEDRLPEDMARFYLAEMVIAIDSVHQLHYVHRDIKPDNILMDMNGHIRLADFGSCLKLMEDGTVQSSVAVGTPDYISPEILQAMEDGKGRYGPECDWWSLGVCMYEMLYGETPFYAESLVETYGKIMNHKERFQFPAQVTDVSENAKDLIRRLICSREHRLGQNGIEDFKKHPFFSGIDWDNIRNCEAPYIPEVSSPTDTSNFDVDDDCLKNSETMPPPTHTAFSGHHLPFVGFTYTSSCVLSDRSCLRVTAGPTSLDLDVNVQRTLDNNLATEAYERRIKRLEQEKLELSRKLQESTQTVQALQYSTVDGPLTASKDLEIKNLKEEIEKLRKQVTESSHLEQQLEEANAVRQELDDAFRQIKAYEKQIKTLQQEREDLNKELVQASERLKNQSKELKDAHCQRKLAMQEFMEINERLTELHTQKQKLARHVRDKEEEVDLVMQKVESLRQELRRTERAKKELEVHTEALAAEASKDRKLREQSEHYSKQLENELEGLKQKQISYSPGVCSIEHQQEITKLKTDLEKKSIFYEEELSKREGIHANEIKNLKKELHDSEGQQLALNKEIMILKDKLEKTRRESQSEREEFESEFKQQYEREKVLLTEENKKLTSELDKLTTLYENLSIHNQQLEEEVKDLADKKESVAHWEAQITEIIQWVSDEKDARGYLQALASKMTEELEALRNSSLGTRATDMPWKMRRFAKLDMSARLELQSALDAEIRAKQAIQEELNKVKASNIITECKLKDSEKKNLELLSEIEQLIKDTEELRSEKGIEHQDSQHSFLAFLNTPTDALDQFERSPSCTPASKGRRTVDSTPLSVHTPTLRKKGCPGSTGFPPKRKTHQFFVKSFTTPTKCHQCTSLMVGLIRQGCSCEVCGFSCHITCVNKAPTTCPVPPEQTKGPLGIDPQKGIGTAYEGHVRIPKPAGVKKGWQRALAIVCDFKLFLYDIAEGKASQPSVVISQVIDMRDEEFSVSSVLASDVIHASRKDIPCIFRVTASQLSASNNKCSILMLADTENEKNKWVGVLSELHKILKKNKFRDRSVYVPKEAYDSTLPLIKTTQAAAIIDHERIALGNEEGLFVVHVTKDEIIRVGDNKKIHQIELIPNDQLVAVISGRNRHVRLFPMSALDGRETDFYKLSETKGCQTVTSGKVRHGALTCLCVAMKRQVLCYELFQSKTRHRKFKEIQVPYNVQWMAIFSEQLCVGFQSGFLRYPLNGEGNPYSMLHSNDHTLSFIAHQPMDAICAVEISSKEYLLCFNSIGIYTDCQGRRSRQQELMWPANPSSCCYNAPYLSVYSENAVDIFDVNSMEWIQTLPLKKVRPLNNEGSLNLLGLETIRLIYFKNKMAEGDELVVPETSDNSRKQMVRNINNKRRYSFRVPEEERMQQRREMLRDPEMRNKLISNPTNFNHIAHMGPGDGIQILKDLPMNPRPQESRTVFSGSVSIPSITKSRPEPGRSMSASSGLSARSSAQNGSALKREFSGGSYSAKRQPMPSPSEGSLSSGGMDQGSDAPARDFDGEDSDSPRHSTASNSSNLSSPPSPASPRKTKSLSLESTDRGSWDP
# Method in brief: as §1
# [4] = target: T14, ABL1(Q252H)-nonphosphorylated (Homo sapiens, UniProt P00519, Q252H); conditions: read-out: % Retention on Solid Support
# T14 construct: purchased DiscoveRx KINOMEscan
# Method in brief: as §1
# DAPK2 = target: T15, DAPK2 (Homo sapiens, UniProt Q9UIK4); conditions: read-out: % Retention on Solid Support
# T15 construct: purchased DiscoveRx KINOMEscan
# Method in brief: as §1
# ACVR2B = target: T16, ACVR2B (Homo sapiens, UniProt Q13705)
# T16 construct: purchased DiscoveRx KINOMEscan
# Method in brief: as §1
# [5] = target: T17, ABL1(M351T)-phosphorylated (Homo sapiens, UniProt P00519, M351T); conditions: 1 µM i-CDK9; read-out: % Retention on Solid Support
# T17 construct: purchased DiscoveRx KINOMEscan
# Method in brief: as §1
# CHEK1 = target: T18, CHEK1 (Homo sapiens, UniProt O14757)
# T18 construct: purchased DiscoveRx KINOMEscan
# T18 sequence (O14757 whole entry): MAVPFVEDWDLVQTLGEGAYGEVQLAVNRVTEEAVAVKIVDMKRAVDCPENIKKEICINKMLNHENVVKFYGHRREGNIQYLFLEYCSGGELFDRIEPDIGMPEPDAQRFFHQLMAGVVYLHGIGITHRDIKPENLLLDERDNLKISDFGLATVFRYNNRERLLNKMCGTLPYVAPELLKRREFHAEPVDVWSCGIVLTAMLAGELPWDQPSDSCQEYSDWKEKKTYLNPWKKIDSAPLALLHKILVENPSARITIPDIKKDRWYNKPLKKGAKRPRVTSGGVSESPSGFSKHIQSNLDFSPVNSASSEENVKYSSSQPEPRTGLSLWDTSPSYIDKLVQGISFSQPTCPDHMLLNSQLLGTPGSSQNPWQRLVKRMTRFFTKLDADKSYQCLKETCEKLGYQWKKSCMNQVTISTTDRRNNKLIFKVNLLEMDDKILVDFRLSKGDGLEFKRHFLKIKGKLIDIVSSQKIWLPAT
# Method in brief: as §1
# ERK4 = target: T19, ERK4 (Homo sapiens, UniProt P31152); conditions: read-out: % Retention on Solid Support
# T19 construct: purchased DiscoveRx KINOMEscan
# Method in brief: as §1
# FYN = target: T20, FYN (Homo sapiens, UniProt P06241); conditions: read-out: % Retention on Solid Support
# T20 construct: purchased DiscoveRx KINOMEscan
# Method in brief: as §1
# BLK = target: T21, BLK (Homo sapiens, UniProt P51451); conditions: read-out: % Retention on Solid Support
# T21 construct: purchased DiscoveRx KINOMEscan
# Method in brief: as §1
# ERBB3 = target: T22, ERBB3 (Homo sapiens, UniProt P21860); conditions: read-out: % Retention on Solid Support
# T22 construct: purchased DiscoveRx KINOMEscan
# Method in brief: as §1
# AKT2 = target: T23, AKT2 (Homo sapiens, UniProt P31751); conditions: read-out: % Retention on Solid Support
# T23 construct: purchased DiscoveRx KINOMEscan
# T23 sequence (P31751 whole entry): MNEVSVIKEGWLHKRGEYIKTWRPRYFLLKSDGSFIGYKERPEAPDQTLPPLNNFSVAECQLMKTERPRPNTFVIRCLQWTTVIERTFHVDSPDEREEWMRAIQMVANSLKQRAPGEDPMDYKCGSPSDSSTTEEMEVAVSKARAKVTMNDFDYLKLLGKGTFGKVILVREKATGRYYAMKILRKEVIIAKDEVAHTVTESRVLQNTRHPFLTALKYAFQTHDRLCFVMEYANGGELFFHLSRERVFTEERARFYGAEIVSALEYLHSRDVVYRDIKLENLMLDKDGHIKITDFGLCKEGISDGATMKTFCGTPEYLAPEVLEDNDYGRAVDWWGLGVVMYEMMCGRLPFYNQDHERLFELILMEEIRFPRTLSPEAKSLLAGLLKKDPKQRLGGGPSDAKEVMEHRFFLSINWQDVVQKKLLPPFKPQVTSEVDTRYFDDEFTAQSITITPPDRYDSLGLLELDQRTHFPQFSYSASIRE
# Method in brief: as §1
# STK36 = target: T24, STK36 (Homo sapiens, UniProt Q9NRP7); conditions: read-out: % Retention on Solid Support
# T24 construct: purchased DiscoveRx KINOMEscan
# Method in brief: as §1
# T1 sequence (Q8IVH8 whole entry): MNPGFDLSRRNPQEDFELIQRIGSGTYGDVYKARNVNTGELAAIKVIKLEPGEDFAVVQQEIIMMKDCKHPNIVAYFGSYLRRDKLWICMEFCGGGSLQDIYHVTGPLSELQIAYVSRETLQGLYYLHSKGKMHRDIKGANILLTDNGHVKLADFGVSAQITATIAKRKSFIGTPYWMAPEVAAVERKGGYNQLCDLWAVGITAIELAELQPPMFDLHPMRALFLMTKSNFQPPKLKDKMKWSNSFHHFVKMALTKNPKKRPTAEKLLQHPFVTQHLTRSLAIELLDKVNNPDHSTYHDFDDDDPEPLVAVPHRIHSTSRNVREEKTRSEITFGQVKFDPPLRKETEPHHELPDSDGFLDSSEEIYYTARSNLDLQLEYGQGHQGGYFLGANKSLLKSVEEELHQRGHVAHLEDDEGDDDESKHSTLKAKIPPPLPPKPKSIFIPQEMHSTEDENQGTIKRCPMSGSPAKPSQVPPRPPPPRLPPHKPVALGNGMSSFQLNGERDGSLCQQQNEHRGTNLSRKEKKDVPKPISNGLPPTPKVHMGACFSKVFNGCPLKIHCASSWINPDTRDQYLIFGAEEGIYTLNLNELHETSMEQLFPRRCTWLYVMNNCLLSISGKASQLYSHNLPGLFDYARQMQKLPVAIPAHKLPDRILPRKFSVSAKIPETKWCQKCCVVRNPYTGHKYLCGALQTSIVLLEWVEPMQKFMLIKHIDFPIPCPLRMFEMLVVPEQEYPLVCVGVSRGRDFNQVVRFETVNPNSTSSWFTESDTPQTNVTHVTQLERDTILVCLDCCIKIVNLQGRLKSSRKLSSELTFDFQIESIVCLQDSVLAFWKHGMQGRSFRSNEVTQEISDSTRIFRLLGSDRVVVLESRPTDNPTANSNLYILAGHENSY
smiles,measurement,setting,value
"N[C@H]1CC[C@H](Nc2cc(-c3cccc(NCc4cccc(F)c4)n3)c(Cl)cn2)CC1 [i-CDK9, N2′-(trans-4-aminocyclohexyl)-5′-chloro-N6-(3-fluorobenzyl)-2,4′-bipyridine-2′,6-diamine]",% Retention on Solid Support,MAP4K3; 1 µM i-CDK9,85%
same,% Retention on Solid Support,MAP4K3; 10 µM i-CDK9,70%
same,remaining binding at 1 µM,MAP3K1; 1 µM i-CDK9,93%
same,remaining binding at 10 µM,MAP3K1; 10 µM i-CDK9,100%
same,remaining binding at 1 µM,MAP4K5; 1 µM i-CDK9,94%
same,remaining binding at 10 µM,MAP4K5; 10 µM i-CDK9,85%
same,remaining binding at 1 µM,MYLK4; 1 µM i-CDK9,94%
same,remaining binding at 10 µM,MYLK4; 10 µM i-CDK9,73%
same,remaining binding at 1 µM,ERK3; 1 µM i-CDK9,94%
same,remaining binding at 10 µM,ERK3; 10 µM i-CDK9,94%
same,remaining binding at 1 µM,EPHA4; 1 µM i-CDK9,100%
same,remaining binding at 10 µM,EPHA4; 10 µM i-CDK9,89%
same,remaining binding at 1 µM,PHKG1; 1 µM i-CDK9,100%
same,remaining binding at 10 µM,PHKG1; 10 µM i-CDK9,100%
same,remaining binding at 1 µM,[1]; 1 µM i-CDK9,73%
same,remaining binding at 10 µM,[1]; 10 µM i-CDK9,100%
same,remaining binding at 1 µM,MKNK2; 1 µM i-CDK9,100%
same,remaining binding at 10 µM,MKNK2; 10 µM i-CDK9,99%
same,remaining binding at 1 µM,RET; 1 µM i-CDK9,100%
same,remaining binding at 10 µM,RET; 10 µM i-CDK9,100%
same,remaining binding at 1 µM,[2]; 1 µM i-CDK9,93%
same,remaining binding at 10 µM,[2]; 10 µM i-CDK9,84%
same,% Retention on Solid Support,[3]; 1 µM i-CDK9,100%
same,% Retention on Solid Support,[3]; 10 µM i-CDK9,86%
same,remaining binding at 1 µM,MRCKA; 1 µM i-CDK9,100%
same,remaining binding at 10 µM,MRCKA; 10 µM i-CDK9,100%
same,remaining binding at 1 µM,[4]; 1 µM i-CDK9,55%
same,remaining binding at 10 µM,[4]; 10 µM i-CDK9,91%
same,remaining binding at 1 µM,DAPK2; 1 µM i-CDK9,90%
same,remaining binding at 10 µM,DAPK2; 10 µM i-CDK9,80%
same,% Retention on Solid Support,ACVR2B; 1 µM i-CDK9,100%
same,% Retention on Solid Support,ACVR2B; 10 µM i-CDK9,85%
same,remaining binding at 1 µM,[5],96%
same,% Retention on Solid Support,CHEK1; 1 µM i-CDK9,100%
same,% Retention on Solid Support,CHEK1; 10 µM i-CDK9,82%
same,remaining binding at 1 µM,ERK4; 1 µM i-CDK9,100%
same,remaining binding at 10 µM,ERK4; 10 µM i-CDK9,100%
same,remaining binding at 1 µM,FYN; 1 µM i-CDK9,69%
same,remaining binding at 10 µM,FYN; 10 µM i-CDK9,100%
same,remaining binding at 1 µM,BLK; 1 µM i-CDK9,100%
same,remaining binding at 10 µM,BLK; 10 µM i-CDK9,100%
same,remaining binding at 1 µM,ERBB3; 1 µM i-CDK9,100%
same,remaining binding at 10 µM,ERBB3; 10 µM i-CDK9,100%
same,remaining binding at 1 µM,AKT2; 1 µM i-CDK9,89%
same,remaining binding at 10 µM,AKT2; 10 µM i-CDK9,77%
same,remaining binding at 1 µM,STK36; 1 µM i-CDK9,92%
same,remaining binding at 10 µM,STK36; 10 µM i-CDK9,68%
